Source: the NIST ThermoML archive (doi:10.1021/acs.jced.8b00008)

Conditions: for viscosity / speed of sound / mass density: 102 kPa, Liquid; for viscosity: Concentric cylinders viscometry; for speed of sound: Single path-length method; for mass density: Vibrating tube method; for surface tension liquid-gas: Pendant drop shape

CCCCCCCCCCCC [dodecane]
Conditions	mass density [kg/m3]	speed of sound [m/s]	surface tension liquid-gas [mN/m]	viscosity [mPa·s]
293.15 K	748.73	1297.7	–	1.49
294.6 K	–	–	25	–
298.15 K	745.11	–	–	1.36
303.15 K	741.77	1259	–	1.26
313.15 K	734.87	1221.1	–	1.06
323.15 K	726.88	1183.9	–	0.925
333.15 K	719.53	1147.6	–	0.795

CCC1CCCCC1 [ethylcyclohexane]
Conditions	mass density [kg/m3]	speed of sound [m/s]	surface tension liquid-gas [mN/m]	viscosity [mPa·s]
293.15 K	787.98	1292.9	–	0.858
295.6 K	–	–	25.3	–
303.15 K	779.91	1249.9	–	0.725
313.15 K	771.79	1208	–	0.649
323.15 K	763.6	1166.9	–	0.572
333.15 K	755.36	1126.9	–	0.504

CC1CCCCC1 [methylcyclohexane]
Conditions	mass density [kg/m3]	speed of sound [m/s]	surface tension liquid-gas [mN/m]	viscosity [mPa·s]
291.1 K	–	–	23.7	–
293.15 K	769.3	1236.5	–	0.74
298.15 K	764.99	1214.5	–	0.685
303.15 K	760.64	1192.3	–	0.633
313.15 K	751.92	1149.2	–	0.572
323.15 K	743.13	1106.9	–	0.489
333.15 K	734.25	1065.7	–	0.44

CCCCCCCCCCCCCCCC [hexadecane]
Conditions	mass density [kg/m3]	speed of sound [m/s]	surface tension liquid-gas [mN/m]	viscosity [mPa·s]
293.15 K	773.37	1357.4	–	3.47
296.1 K	–	–	26.9	–
298.15 K	769.89	1338.6	–	3.06
303.15 K	766.43	1319.7	–	2.76
313.15 K	759.51	1282.9	–	2.23
323.15 K	752.6	1247.1	–	1.86
333.15 K	745.69	1212.2	–	1.56
